Columns and labels:
[1] = target: human SOS1 (nucleotide exchange of K-Ras^G12C) (Homo sapiens, UniProt Q07889); experiment: Biochemical assay 2: K-Ras^G12C activation assay by hSOS1 at high GTP concentration (HTRF); details: E-notation values; unit inferred; 50 μM GTP; read-out: Assay 2 (KRAS-Activation, high GTP) IC50
[2] = target: K-Ras^G12C : hSOS1 interaction (Homo sapiens, UniProt Q07889); experiment: Biochemical assay 1: K-Ras^G12C interaction assay with hSOS1 (HTRF); format: binding; details: E-notation values; unit inferred; read-out: Assay 1 (KRAS-SOS interaction) IC50

| SMILES | IC50 [1] | IC50 [2] |
| --- | --- | --- |
| COc1cc2nc(C)nc(NC(C)c3ccc(-c4ccccc4CN(C)CC#N)s3)c2cc1OC (stereo not drawn) [Example 456, {[2-(5-{1-[(6,7-dimethoxy-2-methylquinazolin-4-yl)amino]ethyl}thiophen-2-yl)benzyl](methyl)amino}acetonitrile] | 292 nM | 162 nM |
| CNC(=O)Nc1ccc2nc(C)nc(NC(C)c3ccc(-c4ccccc4CN(C)C)s3)c2c1 (stereo not drawn) [Example 457, 1-(4-{[1-(5-{2-[(dimethylamino)methyl]phenyl}thiophen-2-yl)ethyl]amino}-2-methylquinazolin-6-yl)-3-methylurea] | 682 nM | 295 nM |
| Cc1nc(NC(C)c2ccc(-c3ccccc3CN(C)C)s2)c2cc(N3CCN(Cc4ccccc4)C(=O)C3)ccc2n1 (stereo not drawn) [Example 458, 1-benzyl-4-(4-{[1-(5-{2-[(dimethylamino)methyl]phenyl}thiophen-2-yl)ethyl]amino}-2-methylquinazolin-6-yl)piperazin-2-one] | 40 nM | 48 nM |
